Test system: Vibrio fischeri
Assay: increase in luminescence of Vibrio fischeri culture with addition of aspartic acid to the cultivation medium
Format: cell-based
Settings: 12.5 mg of aspartic acid added to cultivation medium; aspartic acid-free medium starts only at a later time
Procedure: In two cultivation experiments carried out in parallel, bacterial suspensions were prepared according to the method described below. In order to test the influence of aspartic acid, 12.5 mg of aspartic acid had been added to the cultivation medium of one of the two reaction mixtures. The effect of the addition of aspartic acid was detected by taking luminescence images using the Nightowl camera system from EG&G Berthold and is depicted in FIGS. 2a and 2b.
A tissue culture flask (e.g. Falcon Cat. No. 353110) which contains 125 ml of cultivation medium and a magnetic stirring bar was inoculated with bacteria from a Vibrio fischeri strain stock. The inoculated cultivation solution was then incubated with slow stirring on a magnetic stirrer at room temperature.

Structure (SMILES): N[C@@H](CC(=O)O)C(=O)O [aspartic acid]
- incubation time after which the culture showed a distinct luminescence: ≤ 18 h

From patent US20040033587A1, “Method and device for detecting Biologically Active Substances” (Bayer Aktiengesellschaft, priority 2002, published 2004)
